Data as given in paper PMC7070709, “Design, Synthesis, and In Vitro Evaluation of Hydroxybenzimidazole-Donepezil Analogues as Multitarget-Directed Ligands for the Treatment of Alzheimer’s Disease” (Molecules, 2020).
Where two headings read alike, the source gives them in different places.

Experiments:
[1] = cited from earlier work
[2] = target: Aβ1–42 with Cu(II) (Homo sapiens, UniProt P05067); assay: Inhibition of Cu-induced Aβ1–42 aggregation (thioflavin T fluorescence); format: biochemical; details: copper 40 µM, Aβ1–42 40 μM, 24 h, 37 °C; for inhibition at 40 µM: inhibitor 40 µM
Chain of Aβ1–42 with Cu(II) (P05067 672-713): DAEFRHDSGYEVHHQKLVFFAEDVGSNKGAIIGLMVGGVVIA
Description: (§1) The anti-amyloidogenic capacity of the compounds was also evaluated in vitro, in the absence and presence of Cu(II), based on the measurement of the fluorescence emission of Thioflavin T (ThT), a stain known by its Aβ fibril binding capacity. This binding interaction can be analyzed by fluorimetry, since the presence of ThT-fibrils increases the absorbance and the emission of the ThT dye, and it also induces red shifts on the absorbance (from 385 to 446 nm) and emission peaks (from 445 to 485 nm). All the measurements were performed after incubation (24 h, 37 °C) of the self-mediated and Cu^2+-induced Aβ aggregates in the presence/absence of the compounds under evaluation.
(§2) Herein, due to solubility problems of some compounds in the phosphate buffer (0.215 M, pH 8.0) of the working medium, the assays were carried out in the presence of 40 μM concentration of inhibitor and 20 μM in the case of compound 4, instead of 80 μM as previously reported. […] The activity dependence on ligand structural features may be mainly explained by the different ability for intercalation into the fibrils, as already assumed for other inhibitors. […] The data obtained for compounds 6 and 7 indicate that the presence of R1 = F, -NO2 substituents in the BIM have some small positive effect on the inhibition of Aβ aggregation.
(§3) The Aβ peptide was treated with 1,1,1,3,3,3-hexafluoropropan-2-ol (HFIP) and dissolved in a CH3CN/Na2CO3 (300 μM)/NaOH (250 μM) (48.3:48.3:4.3, v/v/v) mixture in order to have a stable stock solution, avoiding self-aggregation of Aβ1–42. Then, the prepared 500 μM solution was diluted at 40 μM in phosphate buffer (0.215 M, pH 8.0).
(§4) The solutions of the tested compounds were prepared in MeOH (1 mg/mL), being further diluted in phosphate buffer to a concentration of 480 μM. For copper-induced aggregation studies, a solution of CuCl2 240 μM was prepared from a stock standard solution (0.015 M). To perform the assays for the Aβ1–42 aggregation inhibition, a reported method, based on the fluorescence emission of thioflavin T (ThT), was followed. Aβ1–42 (40 μM) was incubated at 37 °C, for 24 h with or without Cu(II) (40 μM) in a phosphate buffer in presence or absence of the single ligand (40 μM and 20 μM for compound 4). Then, the samples were added to a 96-well plate with […] of 5 μM ThT in 50 mM glycine-NaOH (pH 8.5) buffer. Blank samples were prepared without the peptide for each concentration. The ThT fluorescence was measured at 446 nm (excitation) and 485 nm (emission). The inhibition percentage of aggregation was calculated by Equation (2), in which IFi and IF0 corresponded to the fluorescence intensities, in the presence and in the absence of the tested compound, subtracted of the fluorescence intensities due to the respective blanks.
(§5) The reported values were obtained as the mean ± SEM of duplicate of three different experiments.

[3] = target: Aβ1–42 (Homo sapiens, UniProt P05067); assay: Inhibition of self-mediated Aβ1–42 aggregation (thioflavin T fluorescence); format: biochemical; details: Aβ1–42 40 μM, 24 h, 37 °C, read-out: Aβ1–42 Aggregation Inhibition, Self-Induced; for inhibition at 40 µM: inhibitor 40 µM
Chain of Aβ1–42 (P05067 672-713): as above
Description: as §1, §2, §3, §4, §5

[4] = target: T1, AChE (type VI-S, from electric eel) (Electrophorus electricus, UniProt O42275); assay: AChE inhibition, adaptation of Ellman's method; format: biochemical; details: means of three independent experiments ± SD, read-out: TcAChE Inhibition IC50
T1 construct: purchased type VI-S
T1 sequence (O42275 24-633): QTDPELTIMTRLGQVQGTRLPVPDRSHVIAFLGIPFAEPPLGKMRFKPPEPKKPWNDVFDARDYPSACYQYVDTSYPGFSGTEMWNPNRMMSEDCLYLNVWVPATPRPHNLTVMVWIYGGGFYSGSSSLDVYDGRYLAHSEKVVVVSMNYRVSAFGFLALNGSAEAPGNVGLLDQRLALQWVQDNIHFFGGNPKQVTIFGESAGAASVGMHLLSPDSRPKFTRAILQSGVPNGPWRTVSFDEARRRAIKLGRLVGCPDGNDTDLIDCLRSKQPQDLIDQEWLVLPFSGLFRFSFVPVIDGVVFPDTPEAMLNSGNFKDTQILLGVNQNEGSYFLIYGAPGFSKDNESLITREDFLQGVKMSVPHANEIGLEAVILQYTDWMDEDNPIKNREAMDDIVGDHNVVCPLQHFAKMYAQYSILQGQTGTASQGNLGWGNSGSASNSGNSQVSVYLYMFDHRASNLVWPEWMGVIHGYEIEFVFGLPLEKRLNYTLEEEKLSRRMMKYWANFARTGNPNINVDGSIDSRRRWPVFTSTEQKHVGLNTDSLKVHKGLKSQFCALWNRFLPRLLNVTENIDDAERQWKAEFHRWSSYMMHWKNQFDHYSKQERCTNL
Description: The inhibition of AChE by the DNP-BIM hybrids herein studied was assayed by using a variation of Ellman´s test and the IC50 values obtained are included in Table 2. […]. An adaptation of the Ellman´s method, previously described, was used to measure the acetylcholinesterase inhibitory activity. The assay solution contained 374 µL of 4-(2-hydroxyethyl)-1-piperazineethanesulfonic acid (HEPES) buffer (50 mM, pH 8.0), 476 µL of 5,5’-dithiobis-(2-nitrobenzoic acid) (DTNB, 3 mM), a variable volume (10–50 µL) of the stock solution of each compound in methanol (1 mg/mL), 25 µL of AChE (type VI-S, from electric eel) stock solution, and the necessary amount of methanol to obtain 0.925 mL of sample mixture in a 1 mL cuvette. The samples were incubated for 15 min and then 75 µL of acetylthiocholine iodide (AChI) solution (16 mM) was added. The reaction was monitored for 5 min at 405 nm. Assays were run with a blank containing all the components except AChE, which was replaced by HEPES buffer. The rates of the reaction were calculated as well as the enzyme activity. A control reaction was carried out using methanol as a sample solution and it was considered as 100% activity.
The inhibition curves were obtained by plotting the percentage of enzymatic inhibition versus inhibitor concentration and a calibration curve was got from which the linear regression parameters were obtained.

[5] = Zn(II) chelation by potentiometry; format: physicochemical; details: for pH at which metal complexation starts, Zn(II): formation of MHL species, CL = 6.7 × 10^−4 M, 1:2 M(II)/L; for pZn (pM = −log[M]): pH 7.4, CL/CM = 10, CM = 10^−6 M
Source text: (§6) The metal chelating ability of hybrids 7 and 12, due to the BIM bidentate unity with (N,O) coordination mode, was studied by potentiometry. Figure 3A,B show a change in the deprotonation profile of the ligand titration curves due to the presence of the metal ions. In fact, the curves for the Cu(II)/L systems lie well below that of the ligand, while for the Zn(II)/L systems stay under for a > −1 (compound 7) or a > 0 (compound 12), thus supporting the formation of 1:1 and 1:2 M/L ratio complexes with the deprotonated and mono-protonated forms of the ligand and with relative metal dependent stability order (Cu > Zn). Table 1 contains the equilibrium models obtained from the fitting analysis of the potentiometric curves by program Hyperquad. In these equilibrium models, which the coordination core of the compounds integrates the bidentate (N,O) BIM moiety, MHL and MH2L2 correspond to species with the ligand containing one protonated nitrogen atom at the piperazine moiety, ML and ML2 correspond to complexes involving the completely deprotonated form of the ligand while MH-1L2 are mixed ligand-hydroxo metal complexes.
(§7) Solutions: the aqueous copper (CuCl2, 0.015 M) and zinc (ZnCl2, 0.0156 M) stock solutions for potentiometric equilibrium studies were prepared from 1000 ppm standards (Titrisol) and their metal content was evaluated by atomic absorption. The titrant solution (0.1 M KOH) was obtained from a carbonate-free commercial concentrate (Titrisol) and standardized by potentiometric titration with potassium hydrogen phthalate. The titrant solution was discarded whenever the percentage of carbonate (Gran’s method) was about 0.5% of the total amount of base.
(§8) Measurements: compounds 7 and 12 were titrated in 50% (w/w) DMSO/H2O medium, at T = 25.0 ± 0.1 °C and ionic strength (I) 0.1 M KCl, using 0.1 M KOH as titrant. Both glass and Ag/AgCl reference electrodes were previously conditioned in DMSO/H2O mixtures with increasing amounts of DMSO and the response of the glass electrode was controlled by strong acid–strong base (HCl/KOH) calibrations with the determination of the Nernst parameters by Gran’s method. […] All titrations were performed in duplicate and under the stated experimental conditions the pKw value (13.6) was determined and subsequently used in the computations. The stepwise protonation constant of the ligand, Ki = [HiL]/([Hi–1L][H]), and the overall metal–complex stability constants, βMmHhLl = [MmHhLl]/([M]^m[H]^h[L]^l), were calculated by fitting the potentiometric titration data with Hyperquad 2008 [26]. The metal hydrolysis constants were determined under the defined experimental conditions (I = 0.1 M KCl, 50% w/w DMSO/H2O, T = 25.0 ± 0.1 °C) and the following values of stability constants were included in the fitting of experimental data towards the equilibrium models related to the Cu^2+/L and Zn^2+/L systems: log βCu2H−2 = −9.99; log βZnH−2 = −14.79, log βZnH−3 = −23.48. Species distribution curves were plotted with the Hyss program.

[6] = Cu(II) chelation by potentiometry; format: physicochemical; details: for pH at which metal complexation starts, Cu(II): formation of MHL species, CL = 6.7 × 10^−4 M, 1:2 M(II)/L; for pCu (pM = −log[M]): pH 7.4, CL/CM = 10, CM = 10^−6 M; for Kd: pH 7.4, read-out: conditional dissociation constant (K´d) for the copper complex
Source text: as §6, §7, §8

[7] = global formation constant, 50% w/w DMSO/water, I = 0.1 M KCl, 25.0 °C

For `O=[N+]([O-])c1ccc(O)cc1` [4-nitrophenol], the “log K (protonation constant)” value ([1]; standard group) is given as 7.15.

Work on `O=C(NCC1CCCN(Cc2ccccc2)C1)c1ccc2nc(-c3ccccc3O)[nH]c2c1` (stereo not drawn) [Compound 3, N-((1-Benzylpiperidin-3-yl)methyl)-2-(2-hydroxyphenyl)-1H-benzo[d]imidazole-6-carboxamide] yielded an inhibition at 40 µM [2] of 81.8%, an inhibition at 40 µM [3] of 71.4% and an IC50 [4] of 5 ± 0.5 µM.

For `O=C(NCC1CCCCN1Cc1ccccc1)c1ccc2nc(-c3ccccc3O)[nH]c2c1` (stereo not drawn) [Compound 4, N-((1-Benzylpiperidin-2-yl)methyl)-2-(2-hydroxyphenyl)-1H-benzo[d]imidazole-6-carboxamide], the inhibition at 20 µM ([2]; inhibitor 20 µM) was 55.9%, the inhibition at 20 µM ([3]; inhibitor 20 µM) was 47.6% and the IC50 [4] was 14 ± 1 µM.

In the case of `O=C(NCC1CCN(Cc2ccccc2)CC1)c1ccc2[nH]c(-c3cc(F)ccc3O)nc2c1` [Compound 6, N-((1-Benzylpiperidin-4-yl)methyl)-2-(2-hydroxy-5-fluorophenyl)-1H-benzo[d]imidazole-5-carboxamide], the inhibition at 40 µM [2] is reported as 61%, the inhibition at 40 µM [3] is reported as 51.2% and the IC50 [4] is reported as 1.67 ± 0.05 µM.

In the case of `O=C(NCCN1CCN(Cc2ccccc2)CC1)c1ccc2[nH]c(-c3cc([N+](=O)[O-])ccc3O)nc2c1` [Compound 7, N-(2-(4-Benzylpiperazin-1-yl)ethyl)-2-(2-hydroxy-5-nitrophenyl)-1H-benzo[d]imidazole-5-carboxamide], the inhibition at 40 µM [2] is reported as 71.4%, the “pH at which metal complexation starts, Zn(II)” value [5] is reported as 3.5–4 and the “log βZnmHhLl (101), ZnL” value [5, 7] is reported as 4.98(8). The “log βZnmHhLl (102), ZnL2” value [5, 7] was 10.22(8), the “log βZnmHhLl (111), ZnHL” value [5, 7] was 10.40(8) and the “log βZnmHhLl (122), ZnH2L2” value [5, 7] was 21.92(7). For the same molecule, the “pZn (pM = −log[M])” value [5] was 6.5, the inhibition at 40 µM [3] was 57.6% and the “pH at which metal complexation starts, Cu(II)” value [6] was “around 2”. For the same molecule, the “log βCumHhLl (1–12), CuH-1L2” value [6, 7] was 7.30(9), the “log βCumHhLl (102), CuL2” value [6, 7] was 15.27(8) and the “log βCumHhLl (111), CuHL” value [6, 7] was 14.23(5). The “log βCumHhLl (122), CuH2L2” value [6, 7] was 26.90(7), the “pCu (pM = −log[M])” value [6] was 10.9 and the Kd [6] was 0.08 µM. It also gave an IC50 [4] of 21 ± 3 µM.

In the case of `O=C(NCCN1CCN(Cc2ccccc2)CC1)c1ccc2[nH]c(-c3cc(F)ccc3O)nc2c1` [Compound 8, N-(2-(4-Benzylpiperazin-1-yl)ethyl)-2-(2-hydroxy-5-fluorophenyl)-1H-benzo[d]imidazole-5-carboxamide], the inhibition at 40 µM [2] is reported as 55.2%, the inhibition at 40 µM [3] is reported as 50.6% and the IC50 [4] is reported as 4.3 ± 0.3 µM.

In the case of `O=C(NCCN1CCN(Cc2ccccc2[N+](=O)[O-])CC1)c1ccc2nc(-c3ccccc3O)[nH]c2c1` [Compound 11, 2-(2-Hydroxyphenyl)-N-(2-(4-(2-nitrobenzyl)piperazin-1-yl)ethyl)-1H-benzo[d]imidazole-6-carboxamide], the inhibition at 40 µM [2] is reported as 43.5%, the inhibition at 40 µM [3] is reported as 22.7% and the IC50 [4] is reported as 20 ± 1 µM.

With `O=C(NCCN1CCN(Cc2ccccn2)CC1)c1ccc2nc(-c3ccccc3O)[nH]c2c1` [Compound 12, 2-(2-Hydroxyphenyl)-N-(2-(4-(pyridin-2-ylmethyl)piperazin-1-yl)ethyl)-1H-benzo[d]imidazole-6-carboxamide] the inhibition at 40 µM [2] was 44.4%, the “pH at which metal complexation starts, Zn(II)” value [5] was 3.5–4 and the “log βZnmHhLl (1–12), ZnH-1L2” value [5, 7] was 2.07(7). For the same molecule, the “log βZnmHhLl (101), ZnL” value [5, 7] was 6.26(5), the “log βZnmHhLl (102), ZnL2” value [5, 7] was 10.54(5) and the “log βZnmHhLl (111), ZnHL” value [5, 7] was 12.58(4). For the same molecule, the “pZn (pM = −log[M])” value [5] was 6.3, the inhibition at 40 µM [3] was 30.1% and the “pH at which metal complexation starts, Cu(II)” value [6] was “around 2”. The “log βCumHhLl (1–12), CuH-1L2” value [6, 7] was 7.88(7), the “log βCumHhLl (101), CuL” value [6, 7] was 11.18(5) and the “log βCumHhLl (102), CuL2” value [6, 7] was 17.14(7). The “log βCumHhLl (111), CuHL” value [6, 7] was 16.26(3), the “pCu (pM = −log[M])” value [6] was 10.4 and the Kd [6] was 0.000365 µM. For the same molecule, the IC50 [4] was over 100 µM.

For `c1c[nH]cn1` [imidazole], the “log K (protonation constant)” value ([1]; standard group) is listed as 6.95.

In the case of `Oc1ccccc1` [phenol], the “log K (protonation constant)” value ([1]; standard group) is given as 9.98.

For `c1ccncc1` [pyridine], the “log K (protonation constant)” value ([1]; in water) is listed as 5.24.
